Values quoted from earlier work in patent publication US9283189B2, “Sustained-release preparation of ivabradine or pharmaceutically acceptable salts thereof” (Jiangsu Hengrui Medicine Co., Ltd., priority 2011, dated 2016).

How the values were obtained:
[1] = tested on: chronic stable angina

Influence on glucose or lipid metabolism ([1]; human, in vivo): no influence | Rebound effect following the withdrawal of treatment ([1]; human, in vivo): no rebound effect | Average plasma concentration at steady state (5 mg twice daily, CV=38%): 10 ng/mL | Main half-life in plasma (70˜75% of the AUC): 2 h | Maximum plasma concentration (chronic administration, 5 mg twice daily, CV=29%): 22 ng/mL | Volume of distribution at steady state (in patients): ~100 L | Effective half-life (in vivo): 11 h | Plasma protein bound (in vivo): approximately 70% | Renal clearance (in vivo): approximately 70 ml/min | Total clearance (in vivo): about 400 ml/min | Oral dose excreted unmetabolized in urine (in vivo, po): About 4% | Time to peak plasma level (oral administration, fasting condition): about 1 hour | Kinetics (dose proportionality) (oral dose range of 0.5 mg˜24 mg): linear
Compound: COc1cc2c(cc1OC)CC(=O)N(CCCN(C)CC1Cc3cc(OC)c(OC)cc31)CC2 (centres unmarked) [Ivabradine]
Angina attacks ([1]; 5 mg and 7.5 mg twice daily, patients with chronic stable angina): significant decrease
